# Assay results published in patent US20210078972A1, “QUINOLINE OR QUINAZOLINE COMPOUND AND APPLICATION THEREOF” (HAIHE BIOPHARMA CO., LTD., priority 2018, published 2021).
# What was measured:
# [1] = system: Mixed primary human hepatocytes; test: Metabolism in human hepatocytes, UPLC-UV/Q-TOF MS; type: in vitro ADME; conditions: 180 min
# Experimental: (§1) In this example, a UPLC-UV/Q-TOF MS method was used to evaluate the differences in the metabolic processes of TL134 in hepatocytes of five species of human, monkey, canine, rat, and mouse. It provides a reference for the selection of preclinical pharmacokinetics and studies on animal species safety evaluation.
# (§2) The total volume of each incubation sample was 100 μL, the medium was WME medium (pH 7.4), and the incubation sample included hepatocytes with a cell density of 1.0×10^6 cells/mL and TL134 with a final concentration of 3.0 μM; the negative control sample was incubated with thermal-inactivated mixed hepatocytes (without cell counting) of five species of animals and TL134, and the buffer control sample was incubated with WME medium and TL134. All samples were incubated at 37° C. for 180 min, and then 100 μL of ice-cold acetonitrile was added to stop the reaction. The samples were stored at −70° C. for ready to be tested, and all incubation samples were double samples.
# (§3) Triple TOF 5600′ quadrupole-time-of-flight tandem mass spectrometer (Q-TOF MS), equipped with electrospray ionization source (ESI source) and CDS automatic calibration system, AB SCIEX Company, USA; Acquity UPLC liquid chromatography system, including binary infusion pump, autosampler, column oven, degasser and TUV ultraviolet detector, Waters Company, USA. […]
# MV4-11 cells = test: MV4-11 cell proliferation, CCK-8; type: cell-based; conditions: Homo sapiens, 72 h, read-out: IC50 of inhibition of proliferation of MV4-11 cells
# Experimental: The inhibitory effects of the compounds on the proliferation of MV4-11 cells were detected by a CCK-8 cell counting kit (Dojindo). The specific steps are as follows: MV4-11 cells in the logarithmic phase were seeded into a 96-well culture plate at a suitable density for 90 μL per well. After overnight cultivation, the compounds at different concentrations were added to act for 72 hr, and a solvent control group was set (negative control). After 72 h of the compounds acting on the cells, the effects of the compounds on cell proliferation were detected using the CCK-8 cell counting kit (Dojindo). 10 μL of CCK-8 reagent was added to each well and the plate was placed in an incubator at 37° C. for 2-4 hours. After that, a full-wavelength microplate enzyme-labeling instrument SpectraMax 190 was used to read with a measurement wavelength of 450 nm.
# The inhibition rate (%) of the compound on tumor cell growth was calculated by the following formula:
# Inhibition rate (%)=(OD control well−OD administration well)/OD control well×100%
# The IC50 values were obtained by regression with the four-parameter method using the software attached to the enzyme-labeling instrument.
# [2] = system: Mixed primary male SD rat hepatocytes; test: Metabolism in rat hepatocytes, UPLC-UV/Q-TOF MS; type: in vitro ADME; conditions: 180 min
# Experimental: as §1, §2, §3
smiles,measurement,setting,value
"COc1cc2c(Oc3ccc(NC(=O)c4c(C)n(C)c5ccc(OC(F)(F)F)cc5c4=O)cc3F)ncnc2cc1OCCCN1CCOCC1 [TL-134, N-(3-fluoro-4-((6-methoxy-7-(3-morpholinopropoxy)quinazolin-4-yl)oxy)phenyl)-1,2-dim ethyl-4-oxo-6-(trifluoromethoxy)-1,4-dihydroquinoline-3-carboxamide]","prototype drug metabolized, judging from the UV chromatographic peak areas",[1],approximately 17.8%
same,IC50,MV4-11 cells,< 0.4 nM
same,"prototype drug metabolized, judging from the UV chromatographic peak areas",[2],~19.8%
